How the values were obtained:
MFSD12 = target: T1, MFSD12 (Homo sapiens, UniProt Q6NUT3); assay: Cysteine uptake assay into isolated lysosomes; assay type: biochemical; conditions: 500 μM unlabeled cysteine; lysosomes from HEK-293T cells; 15-minute transport assay
T1 construct: isolate large quantities of lysosomes from wild-type and MFSD12 knock-out HEK-293T cells; endogenous in cells; host or cells: suspension-adapted HEK-293T cells; lysosomes purified by differential and OptiPrep gradient centrifugation
T1 sequence (Q6NUT3 whole entry): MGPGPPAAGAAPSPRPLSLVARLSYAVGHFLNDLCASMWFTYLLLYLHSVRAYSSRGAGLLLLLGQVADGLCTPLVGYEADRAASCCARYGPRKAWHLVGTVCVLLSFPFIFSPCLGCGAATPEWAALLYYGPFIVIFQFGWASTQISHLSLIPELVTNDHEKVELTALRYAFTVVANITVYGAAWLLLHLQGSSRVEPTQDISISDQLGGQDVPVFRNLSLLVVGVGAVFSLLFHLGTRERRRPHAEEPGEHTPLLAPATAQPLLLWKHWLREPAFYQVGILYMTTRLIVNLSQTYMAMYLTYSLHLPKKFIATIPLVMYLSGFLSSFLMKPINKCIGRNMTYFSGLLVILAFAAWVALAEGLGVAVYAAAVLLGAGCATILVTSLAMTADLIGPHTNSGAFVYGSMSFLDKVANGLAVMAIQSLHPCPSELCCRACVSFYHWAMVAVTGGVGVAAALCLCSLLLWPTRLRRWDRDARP
Protocol: Lysosomal purification protocols were adapted from previous protocols (Graham, 2001). 500 million suspension-adapted HEK-293T cells were spun down, washed in ice-cold PBS, and resuspended in 15 mL homogenization buffer (250 mM sucrose; 20 mM HEPES, pH 7.4; 1 mM EDTA) supplemented with protease inhibitor tablets (Roche). Cells were dounced 10 times in a lose fitting glass dounce and the resulting lysate was centrifuged at 1,500×g for 10 minutes at 4° C. After transferring the supernatant, 15 mL homogenization buffer was used to resuspend the pellet, and douncing and centrifugation were repeated. Supernatants from three successive rounds of homogenization and centrifugation were pooled and centrifuged a final time before transferring ‘post-nuclear supernatant’ to the subsequent step. ‘Post-nuclear supernatant’ was centrifuged at 20,000×g for 10 minutes at 4° C. to pellet organelles. To further wash organelles, the pellet was resuspended in 45 mL homogenization buffer and spun again at 20,000×g for 10 minutes at 4° C. The resulting pellet or ‘light mitochondrial fraction’ was resuspended in 9% OptiPrep (Thermo Fisher) prepared in Dilution Buffer (250 mM sucrose; 40 mM HEPES, pH 7.4; 2 mM EDTA) and overlaid on top of a discontinuous gradient of 18, 16, 14, 12, and 10% OptiPrep prepared in Dilution Buffer. […]

[1] = target: T2, plasma membrane-localized MFSD12 (Homo sapiens, UniProt Q6NUT3, DEL167-169/L256A/L257A/Y182H); assay: Plasma membrane cellular cysteine uptake assay (MFSD12^PM); assay type: cell-based; conditions: HEK-293T cells expressing MFSD12^PM; 500 μM cold cysteine for competition
T2 construct: expressed in transfected cells; host or cells: HEK-293T cells transiently transfected with the pRK5-HA-MFSD12 LL253-254AA plasmid (PEI)
T2 sequence (Q6NUT3 with tags, fused parts or gaps DEL167-169/Y182H/L256A/L257A): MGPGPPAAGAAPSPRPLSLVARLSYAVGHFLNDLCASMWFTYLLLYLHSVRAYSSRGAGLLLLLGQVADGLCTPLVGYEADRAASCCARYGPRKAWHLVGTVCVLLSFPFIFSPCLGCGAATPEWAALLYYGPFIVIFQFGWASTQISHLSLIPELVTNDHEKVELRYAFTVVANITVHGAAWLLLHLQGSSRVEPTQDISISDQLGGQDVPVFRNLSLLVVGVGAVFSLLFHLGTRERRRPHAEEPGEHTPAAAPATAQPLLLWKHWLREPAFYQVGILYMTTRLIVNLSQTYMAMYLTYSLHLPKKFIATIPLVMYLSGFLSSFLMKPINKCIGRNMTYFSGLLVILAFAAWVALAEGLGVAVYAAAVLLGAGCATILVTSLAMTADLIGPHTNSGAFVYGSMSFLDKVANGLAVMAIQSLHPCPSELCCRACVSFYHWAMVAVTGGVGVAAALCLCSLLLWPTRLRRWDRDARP
Protocol: 3 million HEK-293T cells were plated in 10 cm dishes. Cells were transfected with 3 μg of plasmid with PEI (3 μg per 1 μg plasmid) and scraped 48 hours post-transfection into ice cold KPBS. After washing twice, cells were resuspended in LysoBuffer supplemented with 2.5 μM Erastin (MilliporeSigma), 4 mM leucine, and 3 mM serine. Assays were started with the addition of cold cysteine (10 μM for transport conditions and 500 μM for competition) and 50 μCi/mL (<100 pM) [^35S]-cysteine. Samples were incubated at 30° C. and aliquots were taken at indicated time points. Aliquoted cells were harvested by centrifugation at 1,000×g for 30 seconds at 4° C. and washed twice in ice-cold PBS. Cell pellets were resuspended in water before mixing into scintillation fluid and measuring scintillation counts (TriCarb T9000TR, Perkin-Elmer).

N[C@@H](CS)C(=O)O [cysteine]
competition of [35S]-cysteine signal in lysosomes (MFSD12): reduce the [^35S] signal in lysosomes having MFSD12 to the same level as those in lysosomes lacking it
competition of MFSD12-induced [35S]-cysteine transport [1]: completely competed
